Measured values published in US20170239239A1, “Method for Inducing a Sustained Immune Response” (Immune Therapeutics Inc., priority 2016, published 2017).
Read-outs that look alike come from different tables or passages of the source.

Tests used:
autism [1] = experiment: Randomized, double blind, placebo-controlled study in autism; format: in vivo, human
Hepatitis B = experiment: Case report, Hepatitis B; format: in vivo, human
colon cancer = experiment: Case report, stage 4 colon cancer; format: in vivo, human
From the text: A person diagnosed with stage 4-colon cancer, 2007 which had spread to their lungs and liver, they removed 40% of their colon and began a round of chemotherapy and three surgeries removed 40% of their colon, half is their right lung and 75% of their liver. During the next 18 months received 47 weeks of chemotherapy (a combination of 4 chemo drugs at once).

Autoimmune Hepatitis = experiment: Case report, Autoimmune Hepatitis Type 1; format: in vivo, human; conditions: first two weeks
Crohn's disease = experiment: Pilot clinical trial in children with moderate to severe Crohn's disease; format: in vivo, human
Description: A pilot clinical trial was conducted in children with moderate to severe Crohn's disease. Fourteen subjects with a mean age of 12.3 years (range, 8 to 17 y) were enrolled. […] Safety and toxicity were monitored by physical examinations and blood chemistries. Clinical activity was assessed by the Pediatric Crohn's Disease Activity Index (PCDAI) and Quality of life was monitored by the Impact III survey.

multiple sclerosis = experiment: Case reports, multiple sclerosis
Follicular Lymphoma (FL) = conditions: 1 year after last CT/PET imaging; cited from earlier work
asymptomatic HIV+ adults = experiment: Single blind 90 day randomized bridging clinical trial in Nigeria; format: in vivo, human
Description: The differences in CD4 count, CD4%, hemoglobin, viral load, interferon alpha, and standard chemistry panel were measured between treated versus non-treated groups four times throughout the study. […] When used alone, it appears to slow and/or stop the progression of the disease.

prostate cancer = experiment: Case report, stage 3 prostate cancer; format: in vivo, human; conditions: person; 4.5 mg nightly with Docetaxel
From the text: person was diagnosed with stage 3 prostate cancer which they were originally treated for 5 years before began 3 rounds of Docetaxel (Taxotere®).

autism [2] = experiment: 10 studies of naltrexone in 155 children with autism; format: in vivo, human
From the text: 155 children participated in 10 studies; 27 received placebo.

HIV/AIDS patients = experiment: Naltrexone as adjunct therapy, 50 HIV patients in Africa; format: in vivo, human
From the text: Naltrexone as an adjunct therapy with HIV/AIDS patients. […] HIV disease is associated with a new constellation of problems, generally referred to as “non-AIDS morbidity”, and, in the popular press, “premature aging. […] at risk for developing a number of non-AIDS conditions, including cardiovascular disease, cancer, kidney disease, liver disease, osteopenia/osteoporosis and neurocognitive disease (collectively referred to as “serious non-AIDS events”). Malignancies associated with infections such as human papilloma virus (including uro-genital and head and neck cancers), Epstein Barr Virus (including Hodgkins disease), and hepatitis B and C (hepatocellular carcinoma), are also relatively common in HIV-infected adult. […] Subtle elevations in many of these biomarkers are associated with dramatic increases in the risk of subsequent disease, including all-cause mortality For example, as compared to a well-matched uninfected population, treated HIV-infected adults have approximately 50 to 100% higher levels of the inflammatory cytokine interleukin-6 (IL-6)^(32). […] Risk factors for impaired CD4 T-cell recovery include low pre-treatment CD4+ T cell count nadir, co-infection with other viruses such as hepatitis C, older age, and perhaps viral factors(24). Suboptimal treatment-mediated CD4+ T cell outcomes likely have clinical consequences given the consistent association between CD4+ T cell counts during ART and elevated risk of many co-morbidities (e.g., heart disease, cancer) and all-cause mortality. Chronic signaling through the interferon-alpha pathway may contribute to this inflammatory disease^(32), as can the impact of virus production/entry (without productive infection) on pyroptosis, which is a highly inflammatory process that can cause death of affected and neighboring cells. The frequency of activated T cells remains elevated during chronic treatment and appears related to size of the HIV reservoir and pace of immune reconstitution although the effect of this marker in predicting overall morbidity and mortality is not as strong as some of the innate immune system inflammatory markers^(37).
We believe that long term monitoring of patients will show a reduction in non-AIDS morbidity.

pleural mesothelioma = experiment: Case report, stage 4 pleural mesothelioma; format: in vivo, human; conditions: person; 4.5 mg nightly, no chemotherapy; February 2009 and 2010
Description: Person diagnosed with stage 4 pleural mesothelioma in December of 2008 and patients after consult with two other doctors it was determined due to the state of the diseases and other health issues to watch the tumors and not do chemotherapy. Prognosis was 6 to 12 months. Patient started 4.5 mg nightly and received on other treatment but did change diet.

[3] = normal volunteers, HIV positive, multiple sclerosis, autism, fibromyalgia, diabetes, and cancer patients; cited from earlier work
[4] = of the 128 that received naltrexone

In the case of `O=C1CC[C@@]2(O)[C@H]3Cc4ccc(O)c5c4[C@@]2(CCN3CC2CC2)[C@H]1O5` [Immediate release naltrexone, naltrexone], the Actometer readings (autism [1]; children very active at baseline) is reported as “improved in two children”, the “Changes in parent measures (CGI, Conners Impulsivity-Hyperactivity Factor, SE-Restlessness) and Teacher CGI” value (autism [1]; in vivo) is reported as “achieved statistical significance” and the “subjects improved in two or more settings” value (autism [1]; in vivo) is reported as “Eight of 13”. For the same compound, the ALT/AST (Hepatitis B; child, 1 mg) was “decreased to normal”, the viral load (Hepatitis B; child, 1 mg, within one month, from 59.2 million) was 53,000 and the serology (Hepatitis B; within 7 months) was “Sero-conversion to negative antigens and positive antibodies”. The viral load (Hepatitis B; within 7 months) was 551, the “completion of chemotherapy protocol” value (colon cancer; person, 4.5 mg nightly with chemotherapy) was “without any major side effects” and the “scans every six months” value (colon cancer; until June of 2015) was “cancer free”. The side effects (Autoimmune Hepatitis) was “vivid dreams and mild indigestion”, the PCDAI score (Crohn's disease; 0.1 mg/kg orally, 8-week course, pretreatment 34.2±3.3, P=0.005) was 21.7±3.9 and the “Systemic and social quality of life (Impact III)” value (Crohn's disease; P=0.035) was “improved”. For the same compound, the “improved with mild disease activity (decrease in PCDAI score by at least 10 points)” value (Crohn's disease; end of the study) was 67%, the “in remission (score≦10)” value (Crohn's disease; end of the study) was “Twenty-five” and the tolerability (Crohn's disease; oral) was “well tolerated without any serious adverse events”. The “MRI over the last 8 years” value (multiple sclerosis; person six) was “no progression of the disease”, the relapses (multiple sclerosis; person six, 4.5 mg at bedtime since 2002) was “not had a one relapse” and the MRI (multiple sclerosis; person, SPMS, 1.5 mg to 3 mg, January of 2011) was “reduced plaque and lesion size”. The mobility (multiple sclerosis; person, Secondary Progressive, 1.5 mg to 3 mg) was “upgraded from wheelchair to cane”, the “time to walking again with a cane” value (multiple sclerosis; person, wheelchair bound, 3 mg nightly) was at most 10 days and the Exacerbations (multiple sclerosis; person, 1.5 mg increasing to 4.5 mg nightly, with hormones and Cortef) was “became less frequent and have stopped”. The disease course (multiple sclerosis; person, 4.5 mg for seven months) was “the disease has stabilized and the progressive deterioration has stopped”, the relapses (multiple sclerosis; person, 4.5 mg nightly, update 2010) was “no relapses” and the side effects (multiple sclerosis; person, after increase to 4.5 mg) was “some insomnia”. For the same compound, the “disease symptoms at follow-up” value (Follicular Lymphoma (FL)) was “remains asymptomatic”, the “improvement in CD4 count, increase” value (asymptomatic HIV+ adults; about 4.5 mg single oral dose with ART, at 3 months, vs control group) was 44% and the BMI (asymptomatic HIV+ adults; about 4.5 mg with ART) was “increase”. The opportunistic infections (asymptomatic HIV+ adults; about 4.5 mg with ART) was “reduction”, the “Improvement in CD4%” value (asymptomatic HIV+ adults; about 4.5 mg with ART, throughout treatment) was “statistically significant” and the “pain scores NRS” value (CRPS; patient, EDS, 3 mg then 4.5 mg per day, from (7-10)/10) was 3-5 /10. For the same compound, the “post-operative pain NRS” value (CRPS; patient, 3 weeks after resuming) was 4-6 /10, the side effects (CRPS; patient, 18 months) was “No side effects” and the “fixed dystonia of the leg” value (CRPS; patient, at cast removal after ankle surgery) was “remission”. The “effect on the dystonia” value (CRPS; patient, first months of treatment) was “no effect”, the CRPS symptoms (CRPS; patient, maintained for 18 months) was “resolved completely” and the side effects (CRPS; person five) was “No side effects”. The “pain, average on the Numeric Rating Scale (NRS)” value (CRPS; person five, 4.5 mg per day at night, from 8 to 10 before) was 5 to 6, the dystonic spasms (CRPS; person five, within 2 months) was “discontinued” and the blood work (prostate cancer) was “stayed stable”. The “overall quality of life” value (prostate cancer) was “much better”, the side effects (autism [2]; in vivo) was “mild” and the tolerability (autism [2]; in vivo) was “generally well tolerated”. For the same compound, the “children with statistically significant improvement in irritability and hyperactivity” value (autism [2]; [4]) was 77%, the “children with statistically significant improvement in irritability and hyperactivity, number” value (autism [2]; [4]) was 98 and the opportunistic infection (HIV/AIDS patients; long term) was “reduction”. The quality of life (HIV/AIDS patients; long term) was “higher”, the Th1/Th2 balance (HIV/AIDS patients; with standard of care (ART)) was “shift from Th1 (pro-inflammatory) to Th2 (anti-inflammatory)” and the inflammatory cytokine (HIV/AIDS patients; with standard of care (ART)) was “Secreased”. The CAT scans (pleural mesothelioma) was “no measurable growth of tumors” and the toxicity [3] was “no major toxicity”.
